Earlier results as cited in patent US20230381267A1, “OXYTOCIN TREATMENT FOR HYPERMOBILE EHLERS-DANLOS SYNDROME” (Baylor College of Medicine, priority 2020, published 2023).

Columns and labels:
[1] = intranasal, individuals with tension-type headache and migraine
[2] = IV administration, irritable bowel syndrome
[3] = humans, preliminary research

SMILES: CC[C@H](C)[C@@H]1NC(=O)[C@H](Cc2ccc(O)cc2)NC(=O)[C@@H](N)CSSC[C@@H](C(=O)N2CCC[C@H]2C(=O)N[C@@H](CC(C)C)C(=O)NCC(N)=O)NC(=O)[C@H](CC(N)=O)NC(=O)[C@H](CCC(N)=O)NC1=O [oxytocin]
- headache relief [1]: relieve headache in a dose-dependent manner
- effect on pain tolerance [2]: significant effect
- average effect (Cohen d) (across central and peripheral modes of administration and type of noxious stimulus (heat, electric)): 2.28
- duration of analgesic effects (after exogenous administration): approximately 1 hour
- time at which analgesic effects were strongest (after exogenous administration): 20 to 30 min
- animal studies in which oxytocin increased pain tolerance (systematic review Rash, AguirreCamacho and Campbell 2014): 29 of 33
- pain sensitivity [3]: decreases pain sensitivity
